# What was measured:
# [1] = biological target: T1, Melanin-concentrating hormone receptor 1 (Homo sapiens, UniProt Q99705); assay: Displacement of [125I]MCH from human recombinant MCHR1 expressed CHO-K1 cell membrane by SPA-YSI assay; assay type: cell membranes
# [2] = biological target: T1, Melanin-concentrating hormone receptor 1; assay: Antagonist activity at MCHR1 (unknown origin) assessed as IP3 levels by cell-based functional assay
# hERG (KCNH2) = hERG (KCNH2) (Homo sapiens, UniProt Q12809); assay: Inhibition of human ERG expressed in HEK293 cells at 1 uM after 5 mins by patch clamp assay; assay type: cell-based; conditions: HEK293 cells that express hERG
# Homo sapiens = species: Homo sapiens; assay: Selectivity ratio of IC50 for human ERG to IC50 for MCHR1 (unknown origin) assessed as IP3 levels by cell-based functional assay
# [3] = biological target: Voltage-gated inwardly rectifying potassium channel KCNH2 (Homo sapiens, UniProt Q12809); assay: Inhibition of human ERG expressed in HEK293 cells after 5 mins by patch clamp assay; assay type: cell-based
# Voltage-gated inwardly rectifying potassium channel KCNH2, sequence (Q12809 whole entry): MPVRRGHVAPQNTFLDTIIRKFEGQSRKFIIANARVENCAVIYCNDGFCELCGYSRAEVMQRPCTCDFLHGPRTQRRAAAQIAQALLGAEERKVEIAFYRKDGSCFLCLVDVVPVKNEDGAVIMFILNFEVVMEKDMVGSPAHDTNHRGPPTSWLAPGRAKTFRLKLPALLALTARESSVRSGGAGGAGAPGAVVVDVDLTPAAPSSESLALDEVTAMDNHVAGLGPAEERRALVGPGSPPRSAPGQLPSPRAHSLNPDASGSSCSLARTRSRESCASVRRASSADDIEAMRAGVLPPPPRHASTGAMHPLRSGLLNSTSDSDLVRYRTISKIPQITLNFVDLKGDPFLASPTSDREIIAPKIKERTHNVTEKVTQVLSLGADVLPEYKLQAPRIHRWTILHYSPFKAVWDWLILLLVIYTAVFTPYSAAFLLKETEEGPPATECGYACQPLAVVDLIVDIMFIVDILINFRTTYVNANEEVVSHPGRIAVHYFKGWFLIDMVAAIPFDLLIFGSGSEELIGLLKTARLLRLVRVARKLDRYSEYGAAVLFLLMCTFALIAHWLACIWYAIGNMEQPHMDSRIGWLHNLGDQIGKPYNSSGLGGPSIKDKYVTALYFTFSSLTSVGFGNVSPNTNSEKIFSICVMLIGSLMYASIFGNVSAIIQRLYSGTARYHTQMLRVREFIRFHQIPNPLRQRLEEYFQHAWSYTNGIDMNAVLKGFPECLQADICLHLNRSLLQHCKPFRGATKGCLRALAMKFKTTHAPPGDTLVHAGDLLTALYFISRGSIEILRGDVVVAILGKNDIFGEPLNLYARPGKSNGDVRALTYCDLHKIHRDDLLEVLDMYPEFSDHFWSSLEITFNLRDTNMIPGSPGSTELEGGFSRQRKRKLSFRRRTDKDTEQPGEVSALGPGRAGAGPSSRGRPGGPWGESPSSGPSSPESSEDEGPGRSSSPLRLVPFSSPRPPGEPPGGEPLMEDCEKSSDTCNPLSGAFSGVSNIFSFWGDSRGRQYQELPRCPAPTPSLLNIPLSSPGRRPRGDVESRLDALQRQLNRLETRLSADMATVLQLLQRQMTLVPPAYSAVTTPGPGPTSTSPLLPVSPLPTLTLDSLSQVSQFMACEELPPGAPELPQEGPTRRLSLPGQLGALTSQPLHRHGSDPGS
# hERG (KCNH2), sequence (Q12809 whole entry): as above
# T1 sequence (Q99705 whole entry): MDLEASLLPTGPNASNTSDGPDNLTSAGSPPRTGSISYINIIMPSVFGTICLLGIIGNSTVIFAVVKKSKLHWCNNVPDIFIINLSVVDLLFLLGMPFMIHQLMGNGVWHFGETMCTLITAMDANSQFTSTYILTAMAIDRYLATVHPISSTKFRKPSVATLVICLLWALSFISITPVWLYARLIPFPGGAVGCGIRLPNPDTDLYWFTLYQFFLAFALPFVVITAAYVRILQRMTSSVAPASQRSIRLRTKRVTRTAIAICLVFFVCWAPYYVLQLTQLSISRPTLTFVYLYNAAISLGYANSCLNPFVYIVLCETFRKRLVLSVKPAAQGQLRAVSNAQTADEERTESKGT
IC50 [1] [µM],IC50 [2] [µM],Structure (SMILES),"inhibition at 5 min, 1 µM (hERG (KCNH2)) [%]",Ratio IC50 (Homo sapiens),IC50 [3] [µM]
0.0009,0.003,CC(=O)Nc1cccc(C2CCN(Cc3ccc(Cc4nc5ccccc5n4-c4ccc(F)cc4)cc3)CC2)c1,98,–,–
0.15,0.259,CC(=O)Nc1cccc(C2CCN(C(C)c3ccc(C(=O)c4nc5ccccc5n4-c4ccc(F)cc4)cc3)CC2)c1 (stereo unspecified),–,–,–
0.055,0.047,CC(=O)Nc1cccc(C2CCN(Cc3ccc(C(=O)c4nc5ccccc5n4C4CCOCC4)cc3)CC2)c1,–,24,1.2
0.034,0.217,CC(=O)Nc1cccc(C2CCN(Cc3ccc(C(=O)c4nc5ccccc5n4-c4ccc(Cl)cc4)cc3)CC2)c1,–,26,1.7
0.011,0.037,CC(=O)Nc1cccc(C2CCN(Cc3ccc(C(=O)c4nc5ccccc5n4-c4ccc(F)cc4)nc3)CC2)c1,37,–,–
0.172,0.26,CC(=O)Nc1cccc(C2CCN(Cc3ccc(C(=O)c4nc5ccccc5n4-c4ccc(C#N)cc4)cc3)CC2)c1,–,–,–
3.25,> 10,CC(=O)Nc1cccc(C2CCN(Cc3ccc(C(=O)c4nc5ccccc5n4-c4ccc(F)cc4)cc3C(F)(F)F)CC2)c1,–,–,–
0.022,0.096,CC(=O)Nc1cccc(C2CCN(Cc3ccc(C(=O)c4nc(C)c(C)n4-c4ccc(F)cc4)cc3)CC2)c1,–,18,1.7
0.138,0.131,CC(=O)Nc1cccc(C2CCN(Cc3ccc(C(=O)c4nc5ccccc5n4C(C)C)cc3)CC2)c1,–,–,–
0.289,0.817,CC(=O)Nc1cccc(C2CCN(Cc3ccc(C(=O)c4nc5ccccc5n4C)cc3)CC2)c1,–,–,–
0.014,0.053,CC(=O)Nc1cccc(C2CCN(Cc3ccc(C(=O)c4nc5cccnc5n4-c4ccc(F)cc4)cc3)CC2)c1,58,–,–
0.651,0.385,CC(=O)Nc1cccc(C2CCN(Cc3ccc(C(=O)c4nc5ccccc5n4-c4ccc(F)cc4)cc3C#N)CC2)c1,–,–,–
–,–,CC(=O)Nc1cccc(C2CCN(CCCCc3nc4ccccc4n3-c3ccc(F)cc3)CC2)c1,–,10,–
0.015,0.043,CC(=O)Nc1cccc(C2CCN(Cc3ccc(C(=O)c4nc5c(F)cc(F)cc5n4-c4ccc(F)cc4)cc3)CC2)c1,70,–,–
–,–,CC(=O)Nc1cccc(C2CCN(CCCNc3nc4ccccc4n3-c3ccc(F)cc3)CC2)c1,–,3,–
0.01,0.003,CC(=O)Nc1cccc(C2CCN(Cc3ccc(Cc4nc5ccccc5n4-c4ccc(F)cc4)cc3C#N)CC2)c1,42,131,–
0.012,0.059,CC(=O)Nc1cccc(C2CCN(Cc3ccc(C(=O)c4nc5cnccc5n4-c4ccc(F)cc4)cc3)CC2)c1,36,–,–
0.046,0.08,CC(=O)Nc1cccc(C2CCN(Cc3ccc(C(=O)c4nc5ccccc5n4-c4ccc(F)cc4)cc3F)CC2)c1,–,–,–
0.027,0.066,CC(=O)Nc1cccc(C2CCN(Cc3ccc(C(=O)c4nc5ccccc5n4-c4ccc(F)cc4)cn3)CC2)c1,27,–,–
0.011,0.015,CC(=O)Nc1cccc(C2CCN(Cc3ccc(C(=O)c4nc5ccccc5n4-c4ccc(F)cc4)cc3)CC2)c1,–,–,–
0.008,0.053,CC(=O)Nc1cccc(C2CCN(Cc3ccc(Oc4nc5ccccc5n4-c4ccc(F)cc4)cc3)CC2)c1,80,–,–
1,1.37,CC(=O)Nc1cccc(C2CCN(Cc3ccc(C(=O)c4nc5ccccc5n4-c4ccc(C(F)(F)F)cc4)cc3)CC2)c1,–,–,–
0.271,0.412,CC(=O)Nc1cccc(C2CCN(Cc3ccc(C(=O)c4nc5ccccc5n4C4CC4)cc3)CC2)c1,–,–,–
0.184,0.336,CC(=O)Nc1cccc(C2CCN(Cc3ccc(C(=O)c4nc5ccccc5n4-c4ccc(F)cc4)cc3Cl)CC2)c1,–,–,–

# From ChEMBL document CHEMBL3217700, “Synthesis and SAR studies of benzimidazole derivatives as melanin concentrating hormone receptor 1 (MCHR1) antagonists: Focus to detune hERG inhibition” (Medchemcomm, 2011)
